Measurements published in BindingDB's records for doi:10.1021/acs.biochem.7b00151 (University of Missouri, 2017).

biological target: T1, Tyrosine-protein phosphatase non-receptor type 1 [1-322] (Human, UniProt P18031); test: PTP1B Activity Assay; details: pH 7
T1 construct: 1-322
T1 sequence (P18031 whole entry): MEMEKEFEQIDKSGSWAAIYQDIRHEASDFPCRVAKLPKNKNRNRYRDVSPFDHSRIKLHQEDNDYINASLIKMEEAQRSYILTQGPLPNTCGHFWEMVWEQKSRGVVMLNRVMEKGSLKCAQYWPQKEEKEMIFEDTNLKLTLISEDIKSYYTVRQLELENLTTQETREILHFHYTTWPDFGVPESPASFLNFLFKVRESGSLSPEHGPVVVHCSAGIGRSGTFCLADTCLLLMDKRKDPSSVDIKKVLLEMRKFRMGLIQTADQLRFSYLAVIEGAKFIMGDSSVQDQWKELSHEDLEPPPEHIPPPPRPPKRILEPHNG
Protocol: The test compounds were introduced into the solutions as stock solutions dissolved in DMSO. After 20−30 s, the amount of PTP1B activity in the assays was assessed by measuring the increase in absorbance at 410 nm as a function of time resulting from the enzyme-mediated conversion of p-NPP to p-nitrophenolate.

Q: How did the IC50 turn out when `Cc1ccc(-c2ccccc2)cc1N1CC(=O)NS1(=O)=O` [5-(4-Methyl[1,1'-biphenyl]-3-yl)-1,2,5-thiadiazolidin-3-one 1,1-Dioxide (2b)] was run?
A: Its IC50 is 77 µM.

Q: What about the Ki of the same compound?
A: Its Ki is 38.5 µM.

Q: With `Cc1ccc(-c2ccc(NC(=O)CBr)cc2)cc1N1CC(=O)NS1(=O)=O` [2-Bromo-N-[3'-(1,1-dioxido-4-oxo-1,2,5-thiadiazolidin-2-yl)-4'-methyl[1,1'-biphenyl]-4-yl]-acetamide (5a)] as the compound, how does the IC50 read?
A: Its IC50 is 54 µM.

Q: And the Ki?
A: The Ki was 27 µM.

Q: Which IC50 does the source give for `CC(=O)Nc1ccc(-c2ccc(C)c(N3CC(=O)NS3(=O)=O)c2)cc1` [N-[3'-(1,1-Dioxido-4-oxo-1,2,5-thiadiazolidin-2-yl)-4'-methyl[1,1'-biphenyl]-4-yl]acetamide (5b)] here?
A: The IC50 was 64 µM.

Q: And the Ki?
A: Its Ki is 32 µM.
